Broadly, the kinetic solubility is solubility judged after dilution from a stock solution rather than from solid.

In brackets after ≈: the same amount, converted by molar mass.

The conditions of the data set: buffer; pH 7.4; 200.0 µM.
`O=[N+]([O-])c1ccc(C[n+]2cccc3ccccc32)cc1.[Cl-]` came in with a solubility (kinetic) of 41 µg/mL.
With `COC(=O)[C@H](CC(C)C)NC(=O)N1CCCCC1` the figure was greater than 38.5 µg/mL.
In the case of `CCN(CC)c1cccc(OC(=O)c2cccnc2Cl)c1`, the solubility (kinetic) is 6.8 µg/mL (≈ 22.3 µM).
Next, `Cc1nc2c(oc3ccc(Cl)cc32)c(=O)[nH]1`: 11.9 µg/mL (≈ 50.7 µM).
In turn, `N#Cc1ccc2c(c1)nc1ccccn12` yielded a solubility (kinetic) greater than 29 µg/mL.
With `O=C(Nc1cc2c(cc1Br)OCCCO2)c1cccnc1` the figure was greater than 52.4 µg/mL.
With `N#CCc1ccc(NC(=O)c2ccc(CN3CCc4ccccc4C3)cc2)cc1` the figure was 1.6 µg/mL (≈ 4.19 µM).
Next, `COc1ccccc1/C=C/C(=O)OCC(=O)NC(=O)NC1CCCC1`: 13.8 µg/mL (≈ 39.8 µM); `O=c1[nH]c2cccnc2n1-c1ccc([N+](=O)[O-])cc1`: 13.3 µg/mL (≈ 51.9 µM).
`COc1ccccc1C1=NC(c2ccccc2)CN1c1ccccc1` (stereo unspecified) returned a solubility (kinetic) of 0.6 µg/mL (≈ 1.83 µM).
Next, `CCOC(=O)C1(C)Oc2ccc(S(=O)(=O)CC)cc2NC1=O` (stereo unspecified): 42.7 µg/mL (≈ 130 µM).
Next, `CN(C)c1cccc(C(=O)Nc2ccc(S(=O)(=O)Nc3nccs3)cc2)c1`: greater than 60.4 µg/mL.
With `CSc1nc(SC(C)C(=O)O)c2c3c(sc2n1)COC(C)(C)C3` (stereo unspecified) the figure was greater than 55.6 µg/mL.
Compound `CCOc1ccc(C(=O)NCC(=O)OCC(=O)N2CCCC2)cc1` yielded a solubility (kinetic) greater than 50.2 µg/mL.
Next, `Cc1ccc(NC(=O)CNC(=O)c2ccco2)nc1`: greater than 38.9 µg/mL.
With `Cn1c(=O)c(-c2ccccc2[N+](=O)[O-])c(Cl)c2ccccc21` the figure was 1.2 µg/mL (≈ 3.81 µM); with `CN(C)c1ccc(CNCC2CCCO2)cc1.Cl` (stereo unspecified), greater than 40.6 µg/mL; with `Cc1ccccc1NS(=O)(=O)c1ccc2oc(=O)ccc2c1`, greater than 47.3 µg/mL.
With `CCN(CC)c1ccc(N)cc1S(=O)(=O)Nc1ccccc1OC` the figure was 41.8 µg/mL (≈ 120 µM).
`Cc1cc(C)c(C(=O)Nc2ccc(C)c(C)c2)c(CC(C)(C)C(=O)O)c1` returned a solubility (kinetic) greater than 53 µg/mL.
`CCOC(=O)c1cnc(SCC#N)nc1N` returned a solubility (kinetic) greater than 35.7 µg/mL.
Next, `O=C(NS(=O)(=O)c1ccccc1)c1cccc(Br)c1`: greater than 51 µg/mL; `O=C(NCC(=O)N1CCN(c2ncccn2)CC1)c1ccccc1F`: greater than 51.5 µg/mL; `Cc1cc(C)nc(SCc2ccc([N+](=O)[O-])cc2)n1`: 6.1 µg/mL (≈ 22.2 µM).
`O=C(COc1cc(Cl)ccc1Cl)Nc1ccc2[nH]c(=O)[nH]c2c1`: the solubility (kinetic) stood at 2.7 µg/mL (≈ 7.67 µM).
With `CNC(=O)/C(C#N)=C/c1c(N2CCN(C)CC2)nc2c(C)cccn2c1=O` the figure was greater than 55 µg/mL; with `OCc1c(Cl)nc2ccccn12`, greater than 27.4 µg/mL; with `N/C(=N\OC(=O)c1ccc(Cl)c(Cl)c1)c1cccc(CSc2ccccn2)c1`, 0.9 µg/mL (≈ 2.08 µM).
Next, `O=c1c2ccccc2nc(/C=C/c2c[nH]c3ccccc23)n1CCO`: 8.6 µg/mL (≈ 26 µM); `CC(=O)N1N=C2C3CCN(CC3)C2C1c1ccc(F)cc1` (stereo unspecified): greater than 43.1 µg/mL; `CN(C(=O)Cn1nc(C(=O)O)c2ccccc2c1=O)C1CCCCC1`: greater than 51.5 µg/mL.
Next, `CC(C)c1ccc(C(C)NC(=O)C2CCCC2)cc1` (stereo unspecified): 2.6 µg/mL (≈ 10 µM).
`CN(CC(=O)NCCc1ccc(S(N)(=O)=O)cc1)CC(=O)Nc1ccc(F)c(F)c1F` showed a solubility (kinetic) greater than 68.8 µg/mL.
With `Cc1cc(C)c(C(=O)C(C)OC(=O)c2ccccn2)cc1C` (stereo unspecified) the figure was 17.7 µg/mL (≈ 59.5 µM); with `CC1CN=C(N(C(=O)Nc2ccccc2)C(C)c2ccccc2)S1` (stereo unspecified), 27 µg/mL (≈ 79.5 µM).
With `O=C1c2ccc([N+](=O)[O-])cc2S(=O)(=O)N1Cc1ccccc1` the figure was 8.3 µg/mL (≈ 26.1 µM); with `CCc1ccccc1NC(=O)C1CC(c2ccc(OC)cc2)=NO1` (stereo unspecified), 45.3 µg/mL (≈ 140 µM); with `COc1ccc(C(=O)N2C[C@H]3C[C@@H](C2)c2cccc(=O)n2C3)cc1OC`, greater than 53.2 µg/mL.
As to `C=CCSc1ncccc1C(=O)NCCc1ccccc1`, the solubility (kinetic) was 29.3 µg/mL (≈ 98.2 µM).
The compound `Cc1ncc([N+](=O)[O-])n1CCOc1nonc1N` displayed a kinetic solubility greater than 38.1 µg/mL.
Next, `O=[N+]([O-])c1ccc2nc(-c3ccccc3)oc2c1`: 0.4 µg/mL (≈ 1.67 µM); `COc1cc2c(cc1OC)C(c1cccc([N+](=O)[O-])c1)=NCC2`: greater than 46.8 µg/mL.
Next, `O=C(COC(=O)Cc1ccc(S(=O)(=O)N2CCOCC2)s1)Nc1ccccc1Cl`: greater than 68.8 µg/mL; `CCOc1ccc(NC(=O)NCc2ccccn2)cc1`: 35.6 µg/mL (≈ 131 µM).
With `CC(C)[C@H](NC(=O)c1ccccc1Cl)C(=O)OCC(=O)NC(=O)NCc1ccco1` the figure was 40.1 µg/mL (≈ 92 µM); with `COc1ccc(CCNC(=O)COC(=O)c2ccc(C)s2)cc1`, 27.6 µg/mL (≈ 82.8 µM); with `S=c1[nH]nc(Nc2ccccc2Cl)s1`, greater than 36.6 µg/mL.
As for `CC(=O)Oc1ccc2c(=O)oc(-c3ccccc3C)nc2c1`, the kinetic solubility was 8.4 µg/mL (≈ 28.4 µM).
Next, `O=C(Nc1ccc(OCC(=O)N2CCOCC2)cc1)c1ccccc1F`: greater than 53.8 µg/mL; `CCOc1cccc2cc(C(=O)NCc3ccccc3)c(=N)oc12`: 2.1 µg/mL (≈ 6.51 µM).
With `N#C/C(=C\c1ccccc1)C(=O)NCc1ccc(F)cc1` the figure was 5.3 µg/mL (≈ 18.9 µM).

(Values after PubChem BioAssay AID1996.)
